Experimental data: patent US6936602B1, “Benzazepine derivatives, process for the preparation of the same and uses thereof” (Takeda Chemical Industries, Ltd., priority 1999, dated 2005)

What was measured:
[1] = target: T1, human CCR5 (Homo sapiens, UniProt P51681); assay: Evaluation of test compounds based on CCR5 antagonistic activity: inhibition of [125I]-RANTES binding to CCR5/CHO cells; conditions: Test Compound 1 μM, 100 pM [125I]-RANTES, room temperature for 40 minutes; for inhibition at 1 µM: read-out: Inhibitory Rate (%)
T1 construct: expressed in transfected cells
Method: Cloning of CCR5 gene was carried out by a PCR method from human spleen cDNA. With using 0.5 ng of spleen cDNA (Toyobo, QUICK-Clone cDNA) as template, PCR was performed in DNA Thermal Cycler 480 (Perkin-Elmer) (reaction conditions: 30 cycles of 95° C. for 1 minute, 60° C. for 1 minute, and 75° C. for 5 minutes) by adding each 25 pmol of primers of a primer set, • SEQ ID NO.: 1 described in Test Example (1) of WO 99/32100 [length of sequence: 34; type of sequence: nucleic acid; strandedness: single; topology: straight; kind of sequence: other nucleic acid synthetic DNA, and • SEQ ID NO.: 2 described in Test Example (1) of WO 99/32100 [length of sequence: 34; type of sequence: nucleic acid; strandedness: single; topology: straight; kind of sequence: other nucleic acid synthetic DNA which were designed referring to nucleotide sequence of CCR5 gene reported by Samson et. al. (Biochemistry, 35(11), 3362-3367 (1996)) and by using TaKaRa EX Taq (Takara Shuzo). The resultant PCR product was subjected to agarose gel electrophoresis to collect about 1.0 kb DNA fragment, which was subjected to Original TA Cloning Kit (Funakoshi) to carry out cloning of CCR5 gene. (2) Preparation of Plasmid for Expression of Human CCR5
The plasmid obtained in the above (1) was digested with restriction enzymes XbaI (Takara Shuzo) and BamHI (Takara Shuzo) and subjected to agarose gel electrophoresis to collect about 1.0 kb DNA fragment.
The DNA fragment was mixed with plasmid pcDNA3.1 (Funakoshi) for expression in animal cells, said plasmid being digested with XbaI and BamHI, and they were ligated with DNA Ligation Kit Ver.2 (Takara Shuzo). The resulting plasmid was subjected to transformation of competent cell of E. coli JM109 (Takara Shuzo) to obtain plasmid pCKR5.
CHO-K1 cells were grown in 750 ml of tissue culture flask (Becton Dickinson) using Ham's F12 medium (Nihon Pharmaceutical) containing 10% fetal calf serum (Life Tech Oriental) and taken off with 0.5 g/L trypsin-0.2 g/L EDTA (Life Tech Oriental). The cells were washed with PBS (Life Tech Oriental), centrifuged (1000 rpm, 5 minutes), and suspended in PBS. With using Gene Pulser (Bio-Rad Laboratories), DNA was introduced into the cells under the conditions shown below. That is, to the cuvette of 0.4 cm gap were added 8×10^6 cells and 10 μg of plasmid pCKR5 for expression of human CCR5, and electroporation was carried out under 0.25 kV of voltage and 960 μF of capacitance. The cells were transferred into Ham's F12 medium containing 10% fetal calf serum, and cultivated for 24 hours. The cells were again taken off and centrifuged, and suspended in Ham's F12 medium containing 10% fetal calf serum and 500 μg/ml of geneticin (Life Tech Oriental). The suspension was diluted to give 10^4 cells/ml of the suspension, which was inoculated on a 96 well plate (Becton Dickinson) to give geneticin resistant cells.
The resulting geneticin resistant cells were cultivated in 96 well plate (Becton Dickinson), and cells expressing CCR5 were selected from the geneticin resistant cells. That is, in assay buffer (Ham's F12 medium containing 0.5% BSA and 20 mM HEPES (Wako Pure Chemical, pH7.2)) to which was added 200 pM of [^125I]-RANTES (Amersham) as a ligand, a binding reaction was carried out at room temperature for 46 minutes, and the buffer was washed with cooled PBS. To the buffer was added 50 μl/well of 1M NaOH, and the mixture was stirred. Radioactivity was determined with a y-counter to select CCR5/CHO cells which specifically bind to the ligand.
The CCR5/CHO cells were inoculated on 96 well microplate (5×10^4 cells/well) and cultivated for 24 hours. The medium was removed by means of suction, and to each well was added an assay buffer containing Test Compound (1 μM) and then 100 pM of [^125I]-RANTES (Amersham) as a ligand. A binding assay was carried out at room temperature for 40 minutes, and an assay buffer was removed by means of suction. […]

T1 sequence (P51681 whole entry): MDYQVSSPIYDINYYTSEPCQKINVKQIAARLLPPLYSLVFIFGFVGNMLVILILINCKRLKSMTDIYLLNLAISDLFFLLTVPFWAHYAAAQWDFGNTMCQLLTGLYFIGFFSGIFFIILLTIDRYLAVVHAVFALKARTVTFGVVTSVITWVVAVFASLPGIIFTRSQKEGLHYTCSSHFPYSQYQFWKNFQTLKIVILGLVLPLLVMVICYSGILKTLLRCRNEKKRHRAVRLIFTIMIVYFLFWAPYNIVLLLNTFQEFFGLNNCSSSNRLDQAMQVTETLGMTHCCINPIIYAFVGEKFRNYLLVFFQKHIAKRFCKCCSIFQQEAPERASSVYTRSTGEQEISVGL

Inhibitory Rate (%) [1] | Compound | inhibition at 1 µM [1] | melting point
 | CCOCCCOc1ccc(-c2ccc3c(c2)C=C(C(=O)Nc2ccc(CN(C)C4CCOCC4)cc2)CCN3C=O)cc1 [Compound 2, 7-[4-(3-ethoxypropoxy)phenyl]-1-formyl-N-[4-[[N-methyl-N-(tetrahydro-2H-pyran-4-yl)amino]methyl]phenyl]-2,3-dihydro-1H-1-benzazepine-4-carboxamide] | 96% | 166 to 169 °C
 | CCOc1cc(-c2ccc3c(c2)C=C(C(=O)Nc2ccc(CN(C)C4CCOCC4)cc2)CCN3C=O)ccc1OCCOC(C)C [Compound 23, 7-[3-ethoxy-4-(2-propoxy)ethoxyphenyl]-1-formyl-N-[4-[[N-methyl-N-(tetrahydro-2H-pyran-4-yl)amino]methyl]phenyl]-2,3-dihydro-1H-1-benzazepine-4-carboxamide] | 97% | 117 to 119 °C
 | CCCOCCOc1ccc(-c2ccc3c(c2)C=C(C(=O)Nc2ccc(CN(C)C4CCOCC4)cc2)CCN3CCC)cc1 [Compound 26, N-[4-[[N-methyl-N-(tetrahydro-2H-pyran-4-yl)amino]methyl]phenyl]-7-[4-(2-propoxyethoxy)phenyl]-1-propyl-2,3-dihydro-1H-1-benzazepine-4-carboxamide] | 100% | 128 to 130 °C
 | CCCCOCCOc1ccc(-c2ccc3c(c2)C=C(C(=O)Nc2ccc(CN(C)C4CCOCC4)cc2)CCN3CCC)cc1 [Compound 27, 7-[4-(2-butoxyethoxy)phenyl]-N-[4-[[N-methyl-N-(tetrahydro-2H-pyran-4-yl)amino]methyl]phenyl]-1-propyl-2,3-dihydro-1H-1-benzazepine-4-carboxamide] | 100% | 122 to 124 °C
 | CCCCOCCOc1ccc(-c2ccc3c(c2)C=C(C(=O)Nc2ccc(CN(C)C4CCOCC4)cc2)CCN3Cc2ccccc2)cc1 [Compound 33, 1-benzyl-7-[4-(2-butoxyethoxy)phenyl]-N-[4-[[N-methyl-N-(tetrahydro-2H-pyran-4-yl)amino]methyl]phenyl]-2,3-dihydro-1H-1-benzazepine-4-carboxamide] | 98% | 127 to 131 °C
 | CCCCOCCOc1ccc(-c2ccc3c(c2)C=C(C(=O)Nc2ccc(CN(C)C4CCOCC4)cc2)CCN3CC2CC2)cc1 [Compound 35, 7-[4-(2-butoxyethoxy)phenyl]-1-cyclopropylmethyl-N-[4-[[N-methyl-N-(tetrahydro-2H-pyran-4-yl)amino]methyl]phenyl]-2,3-dihydro-1H-1-benzazepine-4-carboxamide] | 100% | 92 to 94 °C
 | CCCCOCCOc1ccc(-c2ccc3c(c2)C=C(C(=O)Nc2ccc(CN(C)C4CCOCC4)cc2)CCN3c2csc(C)n2)cc1 [Compound 45, 7-[4-(2-butoxyethoxy)phenyl]-1-(2-methylthiazol-4-yl)-N-[4-[[N-methyl-N-(tetrahydro-2H-pyran-4-yl)amino]methyl]phenyl]-2,3-dihydro-1H-1-benzazepine-4-carboxamide] | 100% | 115 to 123 °C
 | C=CCN1CCC(C(=O)Nc2ccc(CN(C)C3CCOCC3)cc2)=Cc2cc(-c3ccc(OCCOCCC)cc3)ccc21 [Compound 49, 1-allyl-N-[4-[[N-methyl-N-(tetrahydropyran-4-yl)amino]methyl]phenyl]-7-(4-propoxyethoxyphenyl)-2,3-dihydro-1-benzazepine-4-carboxamide] | 100% | 110 to 111 °C
 | C=CCN1CCC(C(=O)Nc2ccc(CN(C)C3CCOCC3)cc2)=Cc2cc(-c3ccc(OCCOCCCC)cc3)ccc21 [Compound 50, 1-allyl-7-(4-butoxyethoxyphenyl)-N-[4-[[N-methyl-N-(tetrahydropyran-4-yl)amino]methyl]phenyl]-2,3-dihydro-1-benzazepine-4-carboxamide] | 100% | 103 to 104 °C
 | CCCCOCCOc1ccc(-c2ccc3c(c2)C=C(C(=O)Nc2ccc(CN(C)C4CCOCC4)cc2)CCN3Cc2ccsc2)cc1 [Compound 58, 7-(4-butoxyethoxyphenyl)-N-[4-[[N-methyl-N-(tetrahydropyran-4-yl)amino]methyl]phenyl]-1-(3-thienylmethyl)-2,3-dihydro-1-benzazepine-4-carboxamide] | 99% | 122 to 123 °C
 | CCCCOCCOc1ccc(-c2ccc3c(c2)C=C(C(=O)Nc2ccc(CN(C)C4CCCOC4)cc2)CCN3Cc2cnn(CC)c2)cc1 (stereo not drawn) [Compound 79, 7-(4-butoxyethoxyphenyl)-1-[(1-ethylpyrazol-4-yl)methyl]-N-[4-[[N-methyl-N-(tetrahydropyran-5-yl)amino]methyl]phenyl]-2,3-dihydro-1-benzazepine-4-carboxamide] | 100% | 
 | CCCOCCOc1ccc(-c2ccc3c(c2)C=C(C(=O)Nc2ccc(CN(C)C4CCOCC4)cc2)CCN3CC(C)C)cc1 [Compound 84, 1-isobutyl-N-[4-[N-methyl-N-(tetrahydropyran-4-yl)aminomethyl]phenyl]-7-[4-(2-propoxyethoxy)phenyl]-2,3-dihydro-1-benzazepine-4-carboxamide] | 97% | 
100% | CCCCOCCOc1ccc(-c2ccc3c(c2)C=C(C(=O)Nc2ccc(CN(C)C4CCOCC4)cc2)CCN3CC(C)C)cc1 [Compound 85] |  | 
100% | CCCCOCCOc1ccc(-c2ccc3c(c2)C=C(C(=O)Nc2ccc(CN(C)C4CCOCC4)cc2)CCN3Cc2cncs2)cc1 [Compound 98] |  | 
 | CCCCOCCOc1ccc(-c2ccc3c(c2)C=C(C(=O)Nc2ccc(CN(C)C4CCOCC4)cc2)CCN3Cc2nnnn2C)cc1 [Compound 101, 7-[4-(2-butoxyethoxy)phenyl]-N-[4-[N-methyl-N-(tetrahydropyran-4-yl)aminomethyl]phenyl]-1-(1-methyltetrazol-5-ylmethyl)-2,3-dihydro-1-benzazepine-4-carboxamide] | 100% | 132 to 135 °C
 | CCCCOCCOc1ccc(-c2ccc3c(c2)C=C(C(=O)Nc2ccc(CN(C)C4CCOCC4)cc2)CCN3Cc2nnn(C)n2)cc1 [Compound 102, 7-[4-(2-butoxyethoxy)phenyl]-N-[4-[N-methyl-N-(tetrahydropyran-4-yl)aminomethyl]phenyl]-1-(2-methyltetrazol-5-ylmethyl)-2,3-dihydro-1-benzazepine-4-carboxamide] | 100% | 
 | CCCCOCCOc1ccc(-c2ccc3c(c2)C=C(C(=O)Nc2ccc(CN(C)C4CCOCC4)cc2)CCN3CCCOC)cc1 [Compound 104, 7-[4-(2-butoxyethoxy)phenyl]-1-(3-methoxypropyl)-N-[4-[[N-methyl-N-(tetrahydropyran-4-yl)amino]methyl]phenyl]-2,3-dihydro-1H-1-benzazepine-4-carboxamide] | 98% | 87 to 90 °C
 | CCCCOCCOc1ccc(-c2ccc3c(c2)C=C(C(=O)Nc2ccc(CN(C)C4CCOCC4)cc2)CCN3Cc2nnn(CC)n2)cc1 [Compound 112, 7-[4-(2-butoxyethoxy)phenyl]-1-(2-ethyltetrazol-5-ylmethyl)-N-[4-[N-methyl-N-(tetrahydropyran-4-yl)aminomethyl]phenyl]-2,3-dihydro-1-benzazepine-4-carboxamide] | 100% | 
